Laboratory results published in ChEMBL document CHEMBL1150906, “Cytotoxic and insecticidal constituents of the unripe fruit of Persea americana” (J Nat Prod, 1998).
Values after ≈ are worked out from the molar mass of the structure shown.

How the values were obtained:
A549 = test: Cytotoxicity against human A549 cells by MTT assay; format: functional, cell-based
[1] = Toxicity in Artemia salina; format: organism-based; details: in vivo
A498 = test: Cytotoxicity against human A498 cells by MTT assay; format: functional, cell-based
PC-3 = test: Cytotoxicity against human PC3 cells by MTT assay; format: functional, cell-based
MCF7 = test: Cytotoxicity against human MCF7 cells by MTT assay; format: functional, cell-based
MIA PaCa-2 = test: Cytotoxicity against human MIAPaCa2 cells by MTT assay; format: functional, cell-based
Aedes aegypti = test: Insecticidal activity against yellow fever mosquito larvae […] in bovine liver powder after 4 days by MES assay; format: functional; details: 96 h
HT-29 = test: Cytotoxicity against human HT-29 cells by MTT assay; format: functional, cell-based

**Q.** For `CCCCCCCCCCCCCCCC(O)CC(O)CO` (stereo unspecified), which IC50 (A549) is on record?
**A.** 3 µg/mL (≈ 9.48 µM)

**Q.** And the LC50 [1]?
**A.** 2.8 µg/mL (≈ 8.85 µM)

**Q.** And the IC50 (A498)?
**A.** 2.7 µg/mL (≈ 8.53 µM)

**Q.** And the IC50 (PC-3)?
**A.** 1.2 µg/mL (≈ 3.79 µM)

**Q.** And the IC50 (MCF7)?
**A.** 3.2 µg/mL (≈ 10.1 µM)

**Q.** And the IC50 (MIA PaCa-2)?
**A.** > 10 µg/mL

**Q.** And the LC50 (Aedes aegypti)?
**A.** 1.8 µg/mL (≈ 5.69 µM)

**Q.** And the IC50 (HT-29)?
**A.** 3 µg/mL (≈ 9.48 µM)

**Q.** With `C=CCCCCCCCCCCCC(O)CC(O)CO` (stereo unspecified) [AVOCADENE] as the compound, how does the IC50 (A549) read?
**A.** 3.4 µg/mL (≈ 11.9 µM)

**Q.** And the LC50 [1]?
**A.** 1.3 µg/mL (≈ 4.54 µM)

**Q.** And the IC50 (A498)?
**A.** 3.6 µg/mL (≈ 12.6 µM)

**Q.** And the IC50 (PC-3)?
**A.** 0.46 µg/mL (≈ 1.61 µM)

**Q.** What about the IC50 (MCF7) of the same compound?
**A.** 4.4 µg/mL (≈ 15.4 µM)

**Q.** What about the IC50 (MIA PaCa-2) of the same compound?
**A.** 5.3 µg/mL (≈ 18.5 µM)

**Q.** And the LC50 (Aedes aegypti)?
**A.** 0.21 µg/mL (≈ 0.733 µM)

**Q.** What about the IC50 (HT-29) of the same compound?
**A.** 2.6 µg/mL (≈ 9.08 µM)

**Q.** What does the source list for `COc1cccc2c1C(=O)c1c(O)c3c(c(O)c1C2=O)C[C@@](O)(C(=O)CO)C[C@@H]3O[C@H]1C[C@H](N)[C@H](O)[C@H](C)O1` [DOXORUBICIN]?
**A.** IC50 (A549): 0.0022 µg/mL (≈ 0.00405 µM); IC50 (A498): 0.0049 µg/mL (≈ 0.00902 µM); IC50 (PC-3): 0.011 µg/mL (≈ 0.0202 µM); IC50 (MCF7): 0.081 µg/mL (≈ 0.149 µM); IC50 (MIA PaCa-2): 0.0024 µg/mL (≈ 0.00442 µM); IC50 (HT-29): 0.0053 µg/mL (≈ 0.00975 µM)

**Q.** With `C#CCCCCCCCCCCCC(O)CC(O)CO` (stereo unspecified) [AVOCADYNE] as the compound, how does the IC50 (A549) read?
**A.** 4.8 µg/mL (≈ 16.9 µM)

**Q.** And the LC50 [1]?
**A.** 0.64 µg/mL (≈ 2.25 µM)

**Q.** And the IC50 (A498)?
**A.** 4.1 µg/mL (≈ 14.4 µM)

**Q.** And the IC50 (PC-3)?
**A.** 0.061 µg/mL (≈ 0.214 µM)

**Q.** What about the IC50 (MCF7) of the same compound?
**A.** 6.5 µg/mL (≈ 22.9 µM)

**Q.** What about the IC50 (MIA PaCa-2) of the same compound?
**A.** > 10 µg/mL

**Q.** What about the LC50 (Aedes aegypti) of the same compound?
**A.** 0.077 µg/mL (≈ 0.271 µM)

**Q.** What about the IC50 (HT-29) of the same compound?
**A.** 8.9 µg/mL (≈ 31.3 µM)

**Q.** Which LC50 (Aedes aegypti) does the source give for `C=C(C)[C@H]1Cc2c(ccc3c2O[C@@H]2COc4cc(OC)c(OC)cc4[C@@H]2C3=O)O1` [ROTENONE] here?
**A.** 0.75 µg/mL (≈ 1.9 µM)
